Reference: patent US10246465B2 (priority 2014, dated 2019)

These compounds were tested against human σ1 receptor (Homo sapiens, UniProt Q99720) (assay: biochemical). Details: one combined class from Ki at human σ1 receptor (A1) and Ki at human μ-opioid receptor (A2).
Chain of human σ1 receptor (Q99720 whole entry): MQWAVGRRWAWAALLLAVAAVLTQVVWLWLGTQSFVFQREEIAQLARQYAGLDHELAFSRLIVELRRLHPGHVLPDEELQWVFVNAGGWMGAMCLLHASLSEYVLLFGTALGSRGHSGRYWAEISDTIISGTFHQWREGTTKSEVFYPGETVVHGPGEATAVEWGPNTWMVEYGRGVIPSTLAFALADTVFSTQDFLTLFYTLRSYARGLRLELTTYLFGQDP
Format: binding
Set-up: μ and σ1 dual binding: key to the marks not given beside the values
Protocol: Human σ1 Receptor Radioligand Assay
The assay was carried out with 7 μg of membrane suspension, 5 nM of [^3H](+)-pentazocine in either absence or presence of either buffer or 10 μM Haloperidol for total and non-specific binding, respectively. Binding buffer contained Tris-HCl 50 mM at pH 8. Plates were incubated at 37° C. for 120 minutes. After the incubation period, the reaction mix was then transferred to MultiScreen HTS, FC plates (Millipore), filtered and plates were washed 3 times with ice-cold 10 mM Tris-HCL (pH7.4). Filters were dried and counted at approximately 40% efficiency in a MicroBeta scintillation counter (Perkin-Elmer) using EcoScint liquid scintillation cocktail
In the case of `CCN1CC2(CCN(CCc3ncccc3F)CC2)OC2(CC2)C1=O.Cl` [Example 3, 12-ethyl-8-[2-(3-fluoropyridin-2-yl)ethyl]-4-oxa-8,12-diazadispiro[2.1.5.3]tridecan-13-one hydrochloride], the “μ and σ1 dual binding” value is reported as “++”. For `CCN1CC2(CCN(CCc3cc(C(F)(F)F)ccn3)CC2)OC2(CC2)C1=O.Cl` [Example 4, 12-ethyl-8-{2-[4-(trifluoromethyl)pyridin-2-yl]ethyl}-4-oxa-8,12-diazadispiro[2.1.5.3]tridecan-13-one hydrochloride], the “μ and σ1 dual binding” value was “++”. `CCN1CC2(CCN(CCc3ncccc3Cl)CC2)OC2(CC2)C1=O.Cl` [Example 5, 8-[2-(3-chloropyridin-2-yl)ethyl]-12-ethyl-4-oxa-8,12-diazadispiro[2.1.5.3]tridecan-13-one hydrochloride] was tested, and the “μ and σ1 dual binding” value was “++”. In the case of `CCN1CC2(CCN(CCc3cccc(N)n3)CC2)OC2(CC2)C1=O` [Example 6, 8-[2-(6-aminopyridin-2-yl)ethyl]-12-ethyl-4-oxa-8,12-diazadispiro[2.1.5.3]tridecan-13-one], the “μ and σ1 dual binding” value is reported as “++”. For `CCN1CC2(CCN(CCc3ccncc3)CC2)OC2(CC2)C1=O` [Example 23, 12-ethyl-8-[2-(pyridin-4-yl)ethyl]-4-oxa-8,12-diazadispiro[2.1.5.3]tridecan-13-one], the “μ and σ1 dual binding” value was “++”. `CCN1CC2(CCN(CCc3cccc(C#N)c3)CC2)OC2(CC2)C1=O.Cl` [Example 27, 3-(2-{12-ethyl-13-oxo-4-oxa-8,12-diazadispiro[2.1.5.3]tridecan-8-yl}ethyl)benzonitrile hydrochloride] was tested, and the “μ and σ1 dual binding” value was “++”. With `CN1CC2(CCN(CCc3ccccc3F)CC2)OC2(CC2)C1=O.Cl` [Example 29, 8-[2-fluorophenethyl]-12-methyl-4-oxa-8,12-diazadispiro[2.1.5.3]tridecan-13-one hydrochloride] the “μ and σ1 dual binding” value was “++”. In the case of `C[C@H]1OC2(CCN(CCc3ccccc3OC(F)(F)F)CC2)CN(C)C1=O.Cl` [Example 45, (R)-2,4-dimethyl-9-(2-(trifluoromethoxy)phenethyl)-1-oxa-4,9-diazaspiro[5.5]undecan-3-one hydrochloride], the “μ and σ1 dual binding” value is reported as “++”. In the case of `C[C@H]1OC2(CCN(CCc3ccccc3C(F)(F)F)CC2)CN(C)C1=O.Cl` [Example 48, (R)-2,4-dimethyl-9-(2-(trifluoromethyl)phenethyl)-1-oxa-4,9-diazaspiro[5.5]undecan-3-one hydrochloride], the “μ and σ1 dual binding” value is reported as “++”. In the case of `CC(C)N1CC2(CCN(CCc3c(F)cccc3F)CC2)O[C@H](C)C1=O.Cl` [Example 49, (R)-9-(2,6-difluorophenethyl)-4-isopropyl-2-methyl-1-oxa-4,9-diazaspiro[5.5]undecan-3-one hydrochloride], the “μ and σ1 dual binding” value is reported as “++”. In the case of `CN1CC2(CCN(CCc3ccccc3)CC2)OC(C)(C)C1=O.Cl` [Example 54, 2,2,4-trimethyl-9-phenethyl-1-oxa-4,9-diazaspiro[5.5]undecan-3-one hydrochloride], the “μ and σ1 dual binding” value is reported as “++”. With `CCN1CC2(CCN(CCc3cccc(NC(C)=O)c3)CC2)OC2(CC2)C1=O` [Example 57, N-[3-(2-{12-ethyl-13-oxo-4-oxa-8,12-diazadispiro[2.1.5.3]tridecan-8-yl}ethyl)phenyl]acetamide] the “μ and σ1 dual binding” value was “++”. With `CCN1CC2(CCN(CCc3cccc(NC(N)=O)c3)CC2)OC2(CC2)C1=O` [Example 58, [3-(2-{12-ethyl-13-oxo-4-oxa-8,12-diazadispiro[2.1.5.3]tridecan-8-yl}ethyl)phenyl]urea] the “μ and σ1 dual binding” value was “++”. For `CCN1CC2(CCN(CCc3ccc(C(=O)NC)cc3)CC2)OC2(CC2)C1=O.Cl` [Example 59, 4-(2-{12-ethyl-13-oxo-4-oxa-8,12-diazadispiro[2.1.5.3]tridecan-8-yl}ethyl)-N-methylbenzamide hydrochloride], the “μ and σ1 dual binding” value was “++”. With `CCN1CC2(CCN(CCc3ccccc3O)CC2)OC2(CC2)C1=O` [Example 60, 12-ethyl-8-(2-hydroxyphenethyl)-4-oxa-8,12-diazadispiro[2.1.5.3]tridecan-13-one] the “μ and σ1 dual binding” value was “++”. With `CCN1CC2(CCN(CCc3ccc(O)cc3)CC2)OC2(CC2)C1=O.Cl` [Example 62, 12-ethyl-8-(4-hydroxyphenethyl)-4-oxa-8,12-diazadispiro[2.1.5.3]tridecan-13-one hydrochloride] the “μ and σ1 dual binding” value was “++”. For `C[C@H]1OC2(CCN(CCc3cccc(F)c3F)CC2)CN(C)C1=O` [Example 74, (R)-9-(2,3-difluorophenethyl)-2,4-dimethyl-1-oxa-4,9-diazaspiro[5.5]undecan-3-one], the “μ and σ1 dual binding” value was “++”. With `C[C@H]1OC2(CCN(CCc3cc(F)ccc3F)CC2)CN(C)C1=O` [Example 81, (R)-9-(2,5-difluorophenethyl)-2,4-dimethyl-1-oxa-4,9-diazaspiro[5.5]undecan-3-one] the “μ and σ1 dual binding” value was “++”. `CC1(C)OC2(CCN(CCc3cccc(F)c3F)CC2)CN(C2CC2)C1=O` [Example 85, 4-cyclopropyl-9-(2,3-difluorophenethyl)-2,2-dimethyl-1-oxa-4,9-diazaspiro[5.5]undecan-3-one] was tested, and the “μ and σ1 dual binding” value was “++”. For `CCN1CC2(CCN(CCc3cccc(F)c3F)CC2)O[C@H](C)C1=O` [Example 87, (R)-9-(2,3-difluorophenethyl)-4-ethyl-2-methyl-1-oxa-4,9-diazaspiro[5.5]undecan-3-one], the “μ and σ1 dual binding” value was “++”. In the case of `CCN1CC2(CCN(CCc3cccc(F)c3F)CC2)OC(C)(C)C1=O` [Example 89, 9-(2,3-difluorophenethyl)-4-ethyl-2,2-dimethyl-1-oxa-4,9-diazaspiro[5.5]undecan-3-one], the “μ and σ1 dual binding” value is reported as “++”. For `C[C@H]1OC2(CCN(CCc3cccc(F)c3F)CC2)CN(C2CC2)C1=O` [Example 91, (R)-4-cyclopropyl-9-(2,3-difluorophenethyl)-2-methyl-1-oxa-4,9-diazaspiro[5.5]undecan-3-one], the “μ and σ1 dual binding” value was “++”. In the case of `CN1CC2(CCN(CCc3ccccc3)CC2)O[C@H](CCO)C1=O` [Example 94, (R)-2-(2-hydroxyethyl)-4-methyl-9-phenethyl-1-oxa-4,9-diazaspiro[5.5]undecan-3-one], the “μ and σ1 dual binding” value is reported as “++”. In the case of `CN1CC2(CCN(CCc3ccccc3)CC2)O[C@H](Cc2ccccc2)C1=O` [Example 95, (R)-2-benzyl-4-methyl-9-phenethyl-1-oxa-4,9-diazaspiro[5.5]undecan-3-one], the “μ and σ1 dual binding” value is reported as “++”.

Same assay, conditions: one combined class from Ki at human σ1 receptor (A1) and Ki at human μ-opioid receptor (A2); read-out: μ and σ1 dual binding
`CCN1CC2(CCN(CCc3cccc(N)c3)CC2)OC2(CC2)C1=O` [Example 56, 8-(3-aminophenethyl)-12-ethyl-4-oxa-8,12-diazadispiro[2.1.5.3]tridecan-13-one] showed a Ki greater than 500 nM.
